Test in all cases: KINOMEscan
Holding throughout (format): binding
Holding throughout (details): read-out: % control activity remaining

One experiment deals with T1, DYRK1A (Homo sapiens, UniProt Q13627).
T1 construct: purchased Eurofins DiscoverX KINOMEscan

In a further experiment the target is T2, AAK1 (Homo sapiens, UniProt Q2M2I8).
T2 construct: purchased Eurofins DiscoverX KINOMEscan

The target in a further experiment is T3, EPHA6 (Homo sapiens, UniProt Q9UF33).
T3 construct: purchased Eurofins DiscoverX KINOMEscan
T3 sequence (Q9UF33 23-1036): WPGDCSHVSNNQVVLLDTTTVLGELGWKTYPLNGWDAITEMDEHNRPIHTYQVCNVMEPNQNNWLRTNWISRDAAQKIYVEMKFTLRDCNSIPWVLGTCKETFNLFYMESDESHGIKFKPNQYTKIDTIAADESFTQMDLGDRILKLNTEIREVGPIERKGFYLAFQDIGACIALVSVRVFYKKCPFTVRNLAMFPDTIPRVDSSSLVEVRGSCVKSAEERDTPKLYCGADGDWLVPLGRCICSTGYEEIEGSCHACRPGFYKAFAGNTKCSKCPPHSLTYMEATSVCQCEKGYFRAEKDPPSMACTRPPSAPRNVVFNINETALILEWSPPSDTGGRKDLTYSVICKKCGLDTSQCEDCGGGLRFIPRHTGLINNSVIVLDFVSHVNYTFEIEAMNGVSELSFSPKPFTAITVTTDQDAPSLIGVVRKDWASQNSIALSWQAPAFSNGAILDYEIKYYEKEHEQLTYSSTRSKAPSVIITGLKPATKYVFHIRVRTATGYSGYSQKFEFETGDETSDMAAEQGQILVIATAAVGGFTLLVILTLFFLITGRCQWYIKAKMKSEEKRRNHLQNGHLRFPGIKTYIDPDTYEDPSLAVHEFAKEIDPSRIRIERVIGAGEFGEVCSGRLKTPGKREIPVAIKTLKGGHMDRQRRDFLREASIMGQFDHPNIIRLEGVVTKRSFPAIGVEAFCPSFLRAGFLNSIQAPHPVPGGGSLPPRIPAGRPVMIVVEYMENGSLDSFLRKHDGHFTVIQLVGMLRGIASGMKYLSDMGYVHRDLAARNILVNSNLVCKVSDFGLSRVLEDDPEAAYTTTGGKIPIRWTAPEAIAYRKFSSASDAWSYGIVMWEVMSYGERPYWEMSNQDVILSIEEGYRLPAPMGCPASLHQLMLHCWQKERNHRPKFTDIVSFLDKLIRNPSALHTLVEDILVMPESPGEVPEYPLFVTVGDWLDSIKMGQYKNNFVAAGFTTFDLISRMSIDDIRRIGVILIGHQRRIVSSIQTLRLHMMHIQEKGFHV

Another experiment addresses T4, CAMK2D (Homo sapiens, UniProt Q13557).
T4 construct: purchased Eurofins DiscoverX KINOMEscan

Experiment [1] deals with T5, RSK1(Kin.Dom.2-C-terminal) (Homo sapiens, UniProt Q15418).
T5 construct: RSK1(Kin.Dom.2-C-terminal); purchased Eurofins DiscoverX KINOMEscan

Experiment [2] addresses T6, ABL1(T315I)-nonphosphorylated (Homo sapiens, UniProt P00519, T315I).
T6 construct: purchased Eurofins DiscoverX KINOMEscan

For a further experiment, the target named is T7, CSF1R (Homo sapiens, UniProt P07333).
T7 construct: purchased Eurofins DiscoverX KINOMEscan

The next experiment deals with T8, AURKC (Homo sapiens, UniProt Q9UQB9).
T8 construct: purchased Eurofins DiscoverX KINOMEscan
T8 sequence (Q9UQB9 1-309): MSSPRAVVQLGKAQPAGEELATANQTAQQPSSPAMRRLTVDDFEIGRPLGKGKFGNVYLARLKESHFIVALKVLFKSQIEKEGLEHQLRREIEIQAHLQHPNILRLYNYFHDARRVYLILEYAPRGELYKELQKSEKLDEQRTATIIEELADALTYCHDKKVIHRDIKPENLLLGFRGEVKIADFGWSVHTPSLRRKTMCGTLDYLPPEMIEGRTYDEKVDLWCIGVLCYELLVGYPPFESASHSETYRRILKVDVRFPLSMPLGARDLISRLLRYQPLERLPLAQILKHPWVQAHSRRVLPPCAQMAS

The next experiment deals with T9, KIT-autoinhibited (Homo sapiens, UniProt P10721).
T9 construct: purchased Eurofins DiscoverX KINOMEscan

The target of a further experiment is T10, EGFR(E746-A750del) (Homo sapiens, UniProt P00533, DEL746-750).
T10 construct: purchased Eurofins DiscoverX KINOMEscan

Experiment [3] addresses T11, ABL1(Q252H)-phosphorylated (Homo sapiens, UniProt P00519, Q252H).
T11 construct: purchased Eurofins DiscoverX KINOMEscan

Structures are written as SMILES.

Here are results for three molecules from article PMC6437697 (Journal of Medicinal Chemistry, 2019).

T4 sequence (Q13557 whole entry): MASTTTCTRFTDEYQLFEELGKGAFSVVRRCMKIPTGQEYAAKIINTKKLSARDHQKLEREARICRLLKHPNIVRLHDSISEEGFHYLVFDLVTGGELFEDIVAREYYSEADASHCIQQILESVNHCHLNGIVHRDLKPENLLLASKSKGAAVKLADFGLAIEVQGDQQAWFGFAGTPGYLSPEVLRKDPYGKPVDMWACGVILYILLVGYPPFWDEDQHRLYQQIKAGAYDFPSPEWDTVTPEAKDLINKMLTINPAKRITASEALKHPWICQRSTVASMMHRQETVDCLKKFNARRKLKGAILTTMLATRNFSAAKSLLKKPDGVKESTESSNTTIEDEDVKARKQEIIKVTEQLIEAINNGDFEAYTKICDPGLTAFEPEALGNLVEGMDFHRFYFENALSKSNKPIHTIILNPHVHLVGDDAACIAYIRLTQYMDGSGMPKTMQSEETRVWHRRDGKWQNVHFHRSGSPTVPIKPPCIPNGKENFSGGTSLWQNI
T2 sequence (Q2M2I8 whole entry): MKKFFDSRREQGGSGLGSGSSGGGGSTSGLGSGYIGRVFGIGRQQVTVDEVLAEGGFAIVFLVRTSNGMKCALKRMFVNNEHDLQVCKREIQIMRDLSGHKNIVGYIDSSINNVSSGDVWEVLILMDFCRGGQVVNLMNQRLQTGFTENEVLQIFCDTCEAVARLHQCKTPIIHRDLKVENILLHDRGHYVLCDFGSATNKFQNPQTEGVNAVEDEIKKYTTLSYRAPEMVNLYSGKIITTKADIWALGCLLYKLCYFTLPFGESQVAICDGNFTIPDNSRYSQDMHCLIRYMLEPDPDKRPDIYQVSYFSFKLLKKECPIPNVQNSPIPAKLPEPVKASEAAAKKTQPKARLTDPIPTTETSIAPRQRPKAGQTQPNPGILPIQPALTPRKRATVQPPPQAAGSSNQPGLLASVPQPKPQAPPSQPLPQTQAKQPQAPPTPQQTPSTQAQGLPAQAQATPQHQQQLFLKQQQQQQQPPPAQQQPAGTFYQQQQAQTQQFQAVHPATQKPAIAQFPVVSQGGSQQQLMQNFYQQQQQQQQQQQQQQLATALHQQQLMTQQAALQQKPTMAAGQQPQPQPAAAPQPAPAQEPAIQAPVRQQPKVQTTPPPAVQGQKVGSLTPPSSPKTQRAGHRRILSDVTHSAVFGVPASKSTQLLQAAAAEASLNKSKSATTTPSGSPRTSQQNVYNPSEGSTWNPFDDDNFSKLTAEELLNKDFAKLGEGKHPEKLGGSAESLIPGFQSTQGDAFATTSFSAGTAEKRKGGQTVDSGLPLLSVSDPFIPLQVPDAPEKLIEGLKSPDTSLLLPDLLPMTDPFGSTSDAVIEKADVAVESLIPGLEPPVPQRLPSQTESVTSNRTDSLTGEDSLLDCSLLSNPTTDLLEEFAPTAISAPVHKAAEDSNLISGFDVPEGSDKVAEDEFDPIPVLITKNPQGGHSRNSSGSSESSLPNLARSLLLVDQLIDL
T7 sequence (P07333 20-972): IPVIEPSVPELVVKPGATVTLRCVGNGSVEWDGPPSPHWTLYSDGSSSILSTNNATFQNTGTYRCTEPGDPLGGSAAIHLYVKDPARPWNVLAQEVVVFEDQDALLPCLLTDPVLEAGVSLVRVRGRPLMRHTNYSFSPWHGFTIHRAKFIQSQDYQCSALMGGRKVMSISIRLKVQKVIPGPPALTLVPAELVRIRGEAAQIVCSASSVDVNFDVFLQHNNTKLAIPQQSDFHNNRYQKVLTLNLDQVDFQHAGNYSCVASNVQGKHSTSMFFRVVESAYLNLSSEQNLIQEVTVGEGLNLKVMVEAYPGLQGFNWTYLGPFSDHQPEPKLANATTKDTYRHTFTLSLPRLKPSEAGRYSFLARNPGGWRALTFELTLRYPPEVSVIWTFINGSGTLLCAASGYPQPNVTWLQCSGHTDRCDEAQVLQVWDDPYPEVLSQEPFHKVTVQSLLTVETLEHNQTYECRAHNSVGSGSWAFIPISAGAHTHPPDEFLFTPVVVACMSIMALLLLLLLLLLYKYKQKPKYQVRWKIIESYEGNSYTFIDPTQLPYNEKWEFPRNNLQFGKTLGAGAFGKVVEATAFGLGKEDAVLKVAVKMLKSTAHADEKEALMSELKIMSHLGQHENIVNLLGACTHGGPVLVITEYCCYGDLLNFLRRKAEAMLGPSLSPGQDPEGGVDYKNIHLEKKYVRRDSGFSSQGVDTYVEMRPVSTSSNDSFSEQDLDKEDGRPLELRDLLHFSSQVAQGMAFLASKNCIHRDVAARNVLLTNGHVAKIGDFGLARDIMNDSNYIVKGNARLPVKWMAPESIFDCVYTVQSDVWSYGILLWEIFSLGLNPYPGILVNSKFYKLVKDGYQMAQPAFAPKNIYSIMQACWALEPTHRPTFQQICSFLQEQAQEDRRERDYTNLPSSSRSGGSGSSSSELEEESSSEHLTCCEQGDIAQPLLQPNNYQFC
T9 sequence (P10721 26-976): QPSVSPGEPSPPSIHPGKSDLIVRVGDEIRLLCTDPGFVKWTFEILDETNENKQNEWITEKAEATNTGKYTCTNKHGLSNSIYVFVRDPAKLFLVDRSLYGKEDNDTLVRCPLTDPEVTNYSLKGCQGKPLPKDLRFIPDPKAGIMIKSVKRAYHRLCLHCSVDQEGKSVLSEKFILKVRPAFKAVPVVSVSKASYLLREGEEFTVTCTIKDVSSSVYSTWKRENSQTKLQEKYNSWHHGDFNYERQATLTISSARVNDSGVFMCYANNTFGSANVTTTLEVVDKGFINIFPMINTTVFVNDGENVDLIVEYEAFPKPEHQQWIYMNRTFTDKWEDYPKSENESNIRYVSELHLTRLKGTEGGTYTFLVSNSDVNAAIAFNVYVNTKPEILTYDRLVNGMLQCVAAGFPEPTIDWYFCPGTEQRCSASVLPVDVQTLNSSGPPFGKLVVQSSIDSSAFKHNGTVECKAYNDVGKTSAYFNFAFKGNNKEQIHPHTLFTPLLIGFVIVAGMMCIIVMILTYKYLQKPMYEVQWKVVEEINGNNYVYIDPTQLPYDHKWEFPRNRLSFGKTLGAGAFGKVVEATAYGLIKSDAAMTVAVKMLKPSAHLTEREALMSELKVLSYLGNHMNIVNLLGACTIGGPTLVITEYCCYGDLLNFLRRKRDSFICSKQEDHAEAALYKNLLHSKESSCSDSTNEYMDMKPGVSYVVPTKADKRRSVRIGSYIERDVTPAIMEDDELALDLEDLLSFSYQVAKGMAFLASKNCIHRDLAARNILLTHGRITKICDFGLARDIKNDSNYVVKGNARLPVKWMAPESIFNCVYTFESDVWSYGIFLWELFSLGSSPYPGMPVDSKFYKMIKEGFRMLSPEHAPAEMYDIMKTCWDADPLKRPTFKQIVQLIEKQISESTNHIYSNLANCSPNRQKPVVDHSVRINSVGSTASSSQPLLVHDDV
T10 sequence (P00533 with tags, fused parts or gaps DEL746-750 limits assumed): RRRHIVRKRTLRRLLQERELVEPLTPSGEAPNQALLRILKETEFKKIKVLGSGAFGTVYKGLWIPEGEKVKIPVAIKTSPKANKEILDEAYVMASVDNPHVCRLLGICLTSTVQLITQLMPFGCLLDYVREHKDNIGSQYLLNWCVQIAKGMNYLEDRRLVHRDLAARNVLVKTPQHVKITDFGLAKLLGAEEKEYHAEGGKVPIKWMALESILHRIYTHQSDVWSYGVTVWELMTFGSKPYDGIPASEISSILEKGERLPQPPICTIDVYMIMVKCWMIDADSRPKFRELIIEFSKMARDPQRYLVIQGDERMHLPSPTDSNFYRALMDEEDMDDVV
T5 sequence (Q15418 418-675 limits assumed): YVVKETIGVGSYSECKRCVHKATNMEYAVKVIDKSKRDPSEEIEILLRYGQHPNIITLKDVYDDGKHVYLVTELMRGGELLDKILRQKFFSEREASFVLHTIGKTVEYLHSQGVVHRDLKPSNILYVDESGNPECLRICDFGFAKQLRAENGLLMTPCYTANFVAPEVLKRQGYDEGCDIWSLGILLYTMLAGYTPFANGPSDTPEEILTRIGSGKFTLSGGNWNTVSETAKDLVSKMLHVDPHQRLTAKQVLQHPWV

Turning to `Clc1cc(NCC2CC2)c2ncc(-c3ccc4[nH]ncc4c3)n2n1` [compound 2, 6-Chloro-N-(cyclopropylmethyl)-3-(1H-indazol-5-yl)imidazo[1,2-b]pyridazin-8-amine], the remaining binding at 1 µM came to 5.1% on DYRK1A; 39% on AAK1; 79% at EPHA6; 97% on CAMK2D; 83% in [1]; 76% in experiment [2]. Moreover, the remaining binding at 1 µM at CSF1R was 79%; on AURKC, 92%; on KIT-autoinhibited, 82%; at EGFR(E746-A750del) it was 84%; in experiment [3], 78%.

On to `O=C(CN1CCOCC1)N[C@H]1CC[C@H](Nc2cc(Cl)nn3c(-c4ccc5[nH]ncc5c4)cnc23)CC1` [compound 26], for which the remaining binding at 1 µM was 0.35% on DYRK1A; 28% on AAK1; 93% on EPHA6; 62% on CAMK2D; 59% in experiment [1]; 38% in [2]. Moreover, the remaining binding at 1 µM on CSF1R turned out to be 21%; on AURKC, 58%; at KIT-autoinhibited it was 34%; at EGFR(E746-A750del), 91%; in experiment [3] it was 46%.

In the case of `CN1CCC(CNc2cc(Cl)nn3c(-c4cc5nc(Nc6ccccc6)[nH]c5cc4F)cnc23)CC1` [compound 31, 6-Chloro-3-(6-fluoro-2-(phenylamino)-1H-benzo[d]imidazol-5-yl)-N-((1-methylpiperidin-4-yl)methyl)imidazo[1,2-b]pyridazin-8-amine], the remaining binding at 1 µM is 71% on DYRK1A; 100% at AAK1; 82% at EPHA6; 100% on CAMK2D; 96% in experiment [1]; 71% in experiment [2]. Also, the remaining binding at 1 µM at CSF1R is 60%; on AURKC, 92%; at KIT-autoinhibited it was 98%; on EGFR(E746-A750del), 100%; in experiment [3], 79%.
